The results in this text go back to ChEMBL document CHEMBL1126209, “Synthesis of a peptidyl 2,2-difluoro-3-aminopropionate” (Bioorg Med Chem Lett, 1992).

The target in the assay is T1, Neutrophil elastase (Homo sapiens, UniProt P08246).
T1 sequence (P08246 whole entry): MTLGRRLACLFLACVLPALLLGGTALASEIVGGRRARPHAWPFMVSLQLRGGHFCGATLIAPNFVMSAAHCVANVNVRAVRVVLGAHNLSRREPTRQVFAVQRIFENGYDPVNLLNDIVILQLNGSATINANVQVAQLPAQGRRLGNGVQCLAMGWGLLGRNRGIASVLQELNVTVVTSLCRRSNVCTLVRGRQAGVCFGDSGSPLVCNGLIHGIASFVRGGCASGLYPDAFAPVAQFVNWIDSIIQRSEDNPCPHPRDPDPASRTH
The assay can be described thus: Compound was evaluated In vitro for inhibition of human neutrophil elastase.

Residues, ends and D or L forms follow the SMILES beside them. *: point of attachment. Dansyl = CN(C)c1cccc2c(S(=O)(=O)*)cccc12; Cbz = O=C(OCc1ccccc1)*; CF3 = FC(F)(F)*

On to `CC(C)[C@H](NC(=O)[C@@H]1CCCN1C(=O)[C@H](C)NC(=O)[C@H](C)NCC(=O)OC(C)(C)C)C(=O)C(F)(F)F`, for which the affinity corresponds to a Ki of 0.044 µM.
For `CCOC(=O)C(F)(F)C(NC(=O)C1CCCN1C(=O)C(C)NC(=O)C(C)NC(=O)OC(C)(C)C)C(C)C` (centres undefined), the Ki – broadly, the equilibrium dissociation constant of an inhibitor or competing ligand from its target – was greater than 300 µM.
As for `CC(C)[C@H](NC(=O)[C@@H]1CCCN1C(=O)[C@H](C)NC(=O)[C@H](C)NC(=O)OCc1ccccc1)C(=O)C(F)(F)F` (Cbz-AAPV-CF3), the figure is 0.001 µM.
For the compound `CC(C)[C@H](NC(=O)[C@@H]1CCCN1C(=O)[C@H](C)NC(=O)[C@H](C)NS(=O)(=O)c1cccc2c(N(C)C)cccc12)C(=O)C(F)(F)F` (Dansyl-AAPV-CF3), the Ki came to 0.01 µM.
